# Measurements published in patent US6897317B2, “4-Phenyltetrahydrochinoline utilized as an inhibitor of the cholesterol ester transfer protein” (Bayer Aktiengesellschaft, priority 1997, dated 2005).
# System: not given
# Assay: not given
# Settings: not given
row,melting point,SMILES
1,206 to 207 °C,CCOc1ccc(-c2c([C@@H](F)c3ccc(C(F)(F)F)cc3)c(C3CCCC3)nc3c2[C@@H](O)CC(C)(C)C3)cc1.Cl
2,168 to 169 °C,CC1(C)Cc2nc(C3CCCC3)c(C(=O)c3ccc(C(F)(F)F)cc3)c(-c3ccc(Cl)cc3)c2[C@@H](O)C1 [Example 52]
3,156 to 158 °C,Cc1ccc(-c2c([C@@H](F)c3ccc(C(F)(F)F)cc3)c(C3CCCC3)nc3c2[C@@H](O)CC(C)(C)C3)cc1 [Example 53]
4,175 to 176 °C,CC1(C)Cc2nc(C3CCCC3)c([C@@H](F)c3ccc(C(F)(F)F)cc3)c(-c3ccc(C(F)(F)F)cc3)c2[C@@H](O)C1 [Example 54]
5,138 to 139 °C,CC1(C)Cc2nc(C3CCCC3)c([C@@H](F)c3ccc(C(F)(F)F)cc3)c(-c3ccc(Cl)cc3)c2[C@@H](O)C1 [Example 55]
6,136 to 137 °C,CC1(C)Cc2nc(C3CCCC3)c(Cc3ccc(C(F)(F)F)cc3)c(-c3ccc(Cl)cc3)c2[C@@H](O)C1 [Example 56]
7,129 °C,CC1(C)Cc2nc(C3CCCC3)c([C@@H](F)c3ccc(C(F)(F)F)cc3)c(-c3cccc(F)c3)c2[C@@H](O)C1 [Example 61]

# Further lines, the compound ahead of its results:
row,SMILES,melting point
1,CC1(C)Cc2nc(C3CCCC3)c(C(=O)c3ccc(C(F)(F)F)cc3)c(-c3ccc(F)c(F)c3)c2[C@@H](O)C1 [Example 46],166 to 168 °C
2,COc1ccc(-c2c(C(=O)c3ccc(C(F)(F)F)cc3)c(C3CCCC3)nc3c2[C@@H](O)CC(C)(C)C3)cc1 [Example 47],171 to 174 °C
3,CC1(C)Cc2nc(C3CCCC3)c(C(=O)c3ccc(C(F)(F)F)cc3)c(-c3ccc(C(F)(F)F)cc3)c2[C@@H](O)C1 [Example 48],157 to 162 °C
4,CC1(C)Cc2nc(C3CCCC3)c(C(=O)c3ccc(C(F)(F)F)cc3)c(-c3cccc(F)c3)c2[C@@H](O)C1 [Example 49],167 to 168 °C
5,Cc1ccc(-c2c(C(=O)c3ccc(C(F)(F)F)cc3)c(C3CCCC3)nc3c2[C@@H](O)CC(C)(C)C3)cc1 [Example 51],153 to 155 °C
6,Cc1ccc(-c2c(Cc3ccc(C(F)(F)F)cc3)c(C3CCCC3)nc3c2[C@@H](O)CC(C)(C)C3)cc1 [Example 62],106 to 108 °C

# Molecular target: T1, cholesterol ester transfer protein (CETP) (Homo sapiens, UniProt P11597)
# T1 construct: CETP is obtained in partially purified form from human plasma by differential centrifugation and column chromatography; from tissue; host or cells: human plasma
# T1 sequence (P11597 18-493): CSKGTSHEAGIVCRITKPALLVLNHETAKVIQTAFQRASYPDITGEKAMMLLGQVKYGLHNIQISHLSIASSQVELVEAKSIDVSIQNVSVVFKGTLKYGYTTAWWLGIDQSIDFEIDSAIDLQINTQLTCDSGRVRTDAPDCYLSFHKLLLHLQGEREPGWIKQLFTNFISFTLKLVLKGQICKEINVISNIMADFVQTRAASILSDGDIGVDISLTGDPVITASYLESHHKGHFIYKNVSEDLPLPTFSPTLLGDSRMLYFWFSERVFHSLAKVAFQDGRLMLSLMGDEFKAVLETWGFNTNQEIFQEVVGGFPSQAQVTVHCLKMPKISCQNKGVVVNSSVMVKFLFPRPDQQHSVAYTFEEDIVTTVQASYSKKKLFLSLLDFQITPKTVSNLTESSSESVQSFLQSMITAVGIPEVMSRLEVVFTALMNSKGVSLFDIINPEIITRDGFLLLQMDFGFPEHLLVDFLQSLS
# Assay: CETP inhibition test (3H-cholesterol ester transfer from HDL to biotinylated LDL, SPA)
# Type: biochemical
# Settings: CETP partially purified from human plasma; 37° C., 18 h; concentration at which transfer is reduced by half
# Experimental: Preparation of CETP • CETP is obtained in partially purified form from human plasma by differential centrifugation and column chromatography and used for the test. For this purpose, human plasma is adjusted to a density of 1.21 g per ml using NaBr and centrifuged at 50,000 rpm at 4° C. for 18 h. The bottom fraction (d>1.21 g/ml) is applied to a Sephadex®Phenyl-Sepharose 4B (Pharmacia) column, washed with 0.15 m NaCl/0.001 M TrisHCl pH 7.4 and subsequently eluted using dist. water. The CETP-active fractions are pooled, dialysed against 50 mM Na-acetate pH 4.5 and applied to a CM-Sepharose® (Pharmacia) column. Elution is subsequently carried out using a linear gradient (0-1 M NaCl). The pooled CETP fractions are dialysed against 10 mM Tris HCl pH 7.4 and subsequently purified further by chromatography over a Mono Q® column (Pharmacia).
# Preparation of Radioactively Labelled HDL • 50 ml of fresh human EDTA plasma are adjusted to a density of 1.12 using NaBr and centrifuged at 4° C. in a Ty 65 rotor at 50,000 rpm for 18 h. […] CETP test • To assess the CETP activity, the transfer of ^3H-cholesterol ester from human HD-lipoproteins to biotinylated LD-lipoproteins is measured. • The reaction is terminated by addition of Streptavidin-SPA® beads (Amersham) and the transferred radioactivity is directly measured in a liquid scintillation counter. • In the assay mixture, […] (˜50,000 cpm) with 10 ml of Biotin-LDL (Amersham) in 50 mM Hepes/0.15 m NaCl/0.1% bovine serum albumin/0.05% NaN3 pH 7.4 are incubated with 10 ml of CETP (1 mg/ml) and 3 ml of a solution of the substance to be tested (dissolved in 10% DMSO/1% BSA) at 37° C. for 18 h. […] of the SPA streptavidin bead solution (TRKQ 7005) are subsequently added, the mixture is incubated with shaking for another 1 h and subsequently measured in a scintillation counter. • The controls used are corresponding incubations with 10 ml of buffer, 10 ml of CETP at 4° C. and 10 ml of CETP at 37° C. • The activity which is transferred in the control experiments with CETP at 37° C. is taken to be 100% transfer. […]
row,IC50,SMILES
1,6 nM,"CC1(C)Cc2nc(C3CCCC3)c(C(F)c3ccc(C(F)(F)F)cc3)c(-c3ccc(F)cc3)c2C(C)(O)C1 (single isomer, unassigned) [Example 1, 2-Cyclopentyl-4-(4-fluorophenyl)-3-[fluoro-(4-trifluoromethyl-phenyl)-methyl]-5-methyl-7,7-dimethyl-5,6,7,8-tetrahydro-quinolin-5-ol]"
2,10 nM,Cc1ccc(-c2c([C@@H](F)c3ccc(C(F)(F)F)cc3)c(C3CCCC3)nc3c2[C@@H](O)CC(C)(C)C3)cc1 [Example 53]
3,23 nM,CC1(C)Cc2nc(C3CCCC3)c([C@@H](F)c3ccc(C(F)(F)F)cc3)c(-c3cccc(F)c3)c2[C@@H](O)C1 [Example 61]
